Test results from article PMC10382584, “Macrocyclization of linear molecules by deep learning to facilitate macrocyclic drug candidates discovery” (Nature Communications, 2023).

What was measured:
Experiment in all cases: biochemical
Set-up in all cases: DiscoveRx KINOMEscan competition binding, percent of DMSO control signal at 100 nM
Details in all cases: read-out: Fig. 4a / Percent Control / Compound 1; percent of DMSO control, competition binding
[1] = target: T1, PIP5K2B (Homo sapiens, UniProt P78356)
T1 construct: gene PIP4K2B
Procedure: (§1) The kinase selectivity profile was performed by using the DiscoveRx KINOMEscan platform. […] Test compounds were prepared as 40× stocks in 100% DMSO and directly diluted into the assay. The results were defined as a percentage of signal between the negative (DMSO, 100% control) and the positive (control compound, 0% control) control, which was calculated as follows: percent control = [(test compound signal − positive control signal)/(negative control signal − positive control signal)] × 100.

[2] = target: T2, YSK1 (Homo sapiens, UniProt O00506)
T2 construct: gene STK25
Procedure: as §1

[3] = target: T3, ABL1(H396P)-phosphorylated (Homo sapiens, UniProt P00519, H396P)
T3 construct: phosphorylated
Procedure: as §1

[4] = target: WNK3 (Homo sapiens, UniProt Q9BYP7)
Procedure: as §1

[5] = target: MYLK (Homo sapiens, UniProt Q15746)
Procedure: as §1

[6] = target: MAPKAPK2 (Homo sapiens, UniProt P49137)
Procedure: as §1

[7] = target: T4, ERK4 (Homo sapiens, UniProt P31152)
T4 construct: gene MAPK4
Procedure: as §1
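Also: KINOMEscan kinase panel binding assay, signal normalized between DMSO as 100% and a positive control compound as 0%.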

MAPKAPK2, sequence (P49137 whole entry): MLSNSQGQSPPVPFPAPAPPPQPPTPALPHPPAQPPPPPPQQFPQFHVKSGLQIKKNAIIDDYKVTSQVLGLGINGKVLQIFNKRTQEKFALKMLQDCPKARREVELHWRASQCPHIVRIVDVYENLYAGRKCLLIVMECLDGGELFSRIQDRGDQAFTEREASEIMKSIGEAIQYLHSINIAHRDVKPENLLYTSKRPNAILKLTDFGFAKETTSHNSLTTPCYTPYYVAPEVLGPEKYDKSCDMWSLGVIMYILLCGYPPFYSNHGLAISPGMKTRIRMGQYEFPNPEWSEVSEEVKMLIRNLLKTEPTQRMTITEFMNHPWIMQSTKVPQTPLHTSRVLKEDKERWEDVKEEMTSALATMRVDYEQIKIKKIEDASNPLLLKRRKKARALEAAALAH
T2 sequence (O00506 whole entry): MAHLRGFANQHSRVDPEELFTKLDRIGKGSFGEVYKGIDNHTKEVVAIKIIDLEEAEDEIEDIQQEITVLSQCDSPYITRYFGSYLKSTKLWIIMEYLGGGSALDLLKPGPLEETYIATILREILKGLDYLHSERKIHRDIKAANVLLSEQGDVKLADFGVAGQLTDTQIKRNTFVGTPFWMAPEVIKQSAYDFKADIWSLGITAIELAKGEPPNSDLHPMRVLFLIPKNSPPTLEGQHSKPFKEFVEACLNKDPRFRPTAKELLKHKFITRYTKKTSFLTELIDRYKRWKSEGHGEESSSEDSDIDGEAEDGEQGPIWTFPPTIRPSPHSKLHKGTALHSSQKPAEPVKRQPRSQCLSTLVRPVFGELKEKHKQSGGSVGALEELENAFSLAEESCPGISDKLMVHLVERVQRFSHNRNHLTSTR
WNK3, sequence (Q9BYP7 whole entry): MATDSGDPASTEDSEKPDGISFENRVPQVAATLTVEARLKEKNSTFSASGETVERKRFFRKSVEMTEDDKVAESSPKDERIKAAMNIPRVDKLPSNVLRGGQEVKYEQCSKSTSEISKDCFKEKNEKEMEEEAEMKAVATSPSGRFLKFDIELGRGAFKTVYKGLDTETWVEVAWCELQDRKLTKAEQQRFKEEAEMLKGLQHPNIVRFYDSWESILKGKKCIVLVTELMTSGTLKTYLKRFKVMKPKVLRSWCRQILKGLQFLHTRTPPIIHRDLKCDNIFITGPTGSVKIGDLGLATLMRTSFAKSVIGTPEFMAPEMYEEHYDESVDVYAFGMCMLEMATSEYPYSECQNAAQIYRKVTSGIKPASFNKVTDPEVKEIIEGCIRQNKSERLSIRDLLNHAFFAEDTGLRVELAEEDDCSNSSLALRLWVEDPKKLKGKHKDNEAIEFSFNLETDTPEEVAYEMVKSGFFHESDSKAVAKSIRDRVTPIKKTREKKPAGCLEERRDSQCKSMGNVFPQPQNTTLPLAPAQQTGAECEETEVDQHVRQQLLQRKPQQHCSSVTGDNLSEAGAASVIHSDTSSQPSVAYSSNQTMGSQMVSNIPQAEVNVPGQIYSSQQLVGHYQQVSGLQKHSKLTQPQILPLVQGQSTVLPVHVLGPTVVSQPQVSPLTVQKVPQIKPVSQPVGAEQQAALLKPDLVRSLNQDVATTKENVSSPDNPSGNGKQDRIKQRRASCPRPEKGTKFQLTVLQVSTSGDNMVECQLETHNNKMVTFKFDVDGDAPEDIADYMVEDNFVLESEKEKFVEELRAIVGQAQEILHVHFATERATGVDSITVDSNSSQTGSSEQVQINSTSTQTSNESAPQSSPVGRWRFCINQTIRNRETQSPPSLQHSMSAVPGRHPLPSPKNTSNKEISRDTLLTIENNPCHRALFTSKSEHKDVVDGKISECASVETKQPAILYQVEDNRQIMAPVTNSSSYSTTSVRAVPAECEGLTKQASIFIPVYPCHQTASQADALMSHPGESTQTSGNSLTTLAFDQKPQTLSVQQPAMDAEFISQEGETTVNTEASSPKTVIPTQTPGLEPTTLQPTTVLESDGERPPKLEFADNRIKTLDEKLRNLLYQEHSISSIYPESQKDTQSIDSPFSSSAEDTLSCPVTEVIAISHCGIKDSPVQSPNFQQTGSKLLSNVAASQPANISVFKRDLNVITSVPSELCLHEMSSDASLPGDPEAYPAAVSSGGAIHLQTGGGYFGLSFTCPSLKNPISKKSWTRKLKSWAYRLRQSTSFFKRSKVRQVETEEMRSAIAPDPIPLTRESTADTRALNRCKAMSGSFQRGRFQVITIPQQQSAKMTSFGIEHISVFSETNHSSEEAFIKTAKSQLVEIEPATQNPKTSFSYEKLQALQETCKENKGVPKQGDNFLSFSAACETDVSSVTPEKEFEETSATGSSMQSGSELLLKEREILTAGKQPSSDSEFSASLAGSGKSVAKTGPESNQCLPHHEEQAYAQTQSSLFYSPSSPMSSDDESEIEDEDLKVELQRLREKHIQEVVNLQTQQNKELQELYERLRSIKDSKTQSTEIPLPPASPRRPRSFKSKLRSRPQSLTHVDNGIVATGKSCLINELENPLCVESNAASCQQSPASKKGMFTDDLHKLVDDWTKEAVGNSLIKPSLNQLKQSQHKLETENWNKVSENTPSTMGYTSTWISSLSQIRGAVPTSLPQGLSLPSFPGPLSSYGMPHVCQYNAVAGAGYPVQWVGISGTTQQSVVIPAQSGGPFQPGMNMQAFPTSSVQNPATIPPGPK
MYLK, sequence (Q15746 whole entry): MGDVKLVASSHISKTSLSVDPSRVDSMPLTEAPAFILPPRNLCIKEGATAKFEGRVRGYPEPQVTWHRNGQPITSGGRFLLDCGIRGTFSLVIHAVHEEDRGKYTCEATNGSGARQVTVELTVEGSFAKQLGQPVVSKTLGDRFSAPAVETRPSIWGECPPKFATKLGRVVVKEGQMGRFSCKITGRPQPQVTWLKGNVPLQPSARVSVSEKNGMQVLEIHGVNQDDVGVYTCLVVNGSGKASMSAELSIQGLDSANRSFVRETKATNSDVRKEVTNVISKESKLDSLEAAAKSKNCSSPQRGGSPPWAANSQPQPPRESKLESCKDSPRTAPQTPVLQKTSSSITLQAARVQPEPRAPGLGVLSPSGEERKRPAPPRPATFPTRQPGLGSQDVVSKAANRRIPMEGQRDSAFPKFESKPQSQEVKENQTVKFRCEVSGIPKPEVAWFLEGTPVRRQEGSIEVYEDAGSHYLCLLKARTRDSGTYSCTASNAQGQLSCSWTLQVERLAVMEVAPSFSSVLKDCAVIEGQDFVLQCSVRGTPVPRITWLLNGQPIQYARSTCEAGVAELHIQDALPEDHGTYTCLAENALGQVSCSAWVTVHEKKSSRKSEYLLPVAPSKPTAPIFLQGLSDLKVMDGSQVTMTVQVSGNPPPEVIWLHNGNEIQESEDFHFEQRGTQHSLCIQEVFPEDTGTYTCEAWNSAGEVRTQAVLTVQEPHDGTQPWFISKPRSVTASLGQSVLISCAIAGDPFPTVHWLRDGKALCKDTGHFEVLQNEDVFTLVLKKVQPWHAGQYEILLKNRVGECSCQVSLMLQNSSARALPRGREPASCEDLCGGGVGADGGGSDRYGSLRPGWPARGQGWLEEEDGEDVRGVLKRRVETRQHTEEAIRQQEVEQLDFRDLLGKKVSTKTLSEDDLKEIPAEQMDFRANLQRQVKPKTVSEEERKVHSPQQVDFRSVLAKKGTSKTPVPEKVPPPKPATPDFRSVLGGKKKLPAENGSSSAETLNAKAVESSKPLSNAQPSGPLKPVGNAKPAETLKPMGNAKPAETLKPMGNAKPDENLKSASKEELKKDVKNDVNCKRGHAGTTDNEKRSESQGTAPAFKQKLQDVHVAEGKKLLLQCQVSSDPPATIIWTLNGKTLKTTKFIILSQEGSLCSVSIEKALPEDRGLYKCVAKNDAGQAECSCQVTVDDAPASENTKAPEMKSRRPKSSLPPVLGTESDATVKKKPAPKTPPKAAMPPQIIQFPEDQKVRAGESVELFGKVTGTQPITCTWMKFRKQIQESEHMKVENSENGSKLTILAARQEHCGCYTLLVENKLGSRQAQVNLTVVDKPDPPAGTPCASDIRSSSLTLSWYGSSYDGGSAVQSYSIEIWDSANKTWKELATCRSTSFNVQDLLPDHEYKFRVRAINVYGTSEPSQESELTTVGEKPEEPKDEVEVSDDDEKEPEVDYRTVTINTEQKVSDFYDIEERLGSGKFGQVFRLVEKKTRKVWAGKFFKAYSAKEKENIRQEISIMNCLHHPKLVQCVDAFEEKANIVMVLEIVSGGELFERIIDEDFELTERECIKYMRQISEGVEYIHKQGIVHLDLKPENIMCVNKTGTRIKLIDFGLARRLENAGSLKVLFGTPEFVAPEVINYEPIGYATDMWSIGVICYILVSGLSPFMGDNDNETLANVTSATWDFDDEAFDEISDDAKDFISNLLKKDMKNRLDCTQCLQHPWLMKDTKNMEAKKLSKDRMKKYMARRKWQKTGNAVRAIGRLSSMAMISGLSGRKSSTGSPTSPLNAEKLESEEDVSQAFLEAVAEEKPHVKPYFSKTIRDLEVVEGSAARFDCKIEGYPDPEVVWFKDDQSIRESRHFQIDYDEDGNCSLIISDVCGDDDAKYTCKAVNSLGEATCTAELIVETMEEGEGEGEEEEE
T4 sequence (P31152 whole entry): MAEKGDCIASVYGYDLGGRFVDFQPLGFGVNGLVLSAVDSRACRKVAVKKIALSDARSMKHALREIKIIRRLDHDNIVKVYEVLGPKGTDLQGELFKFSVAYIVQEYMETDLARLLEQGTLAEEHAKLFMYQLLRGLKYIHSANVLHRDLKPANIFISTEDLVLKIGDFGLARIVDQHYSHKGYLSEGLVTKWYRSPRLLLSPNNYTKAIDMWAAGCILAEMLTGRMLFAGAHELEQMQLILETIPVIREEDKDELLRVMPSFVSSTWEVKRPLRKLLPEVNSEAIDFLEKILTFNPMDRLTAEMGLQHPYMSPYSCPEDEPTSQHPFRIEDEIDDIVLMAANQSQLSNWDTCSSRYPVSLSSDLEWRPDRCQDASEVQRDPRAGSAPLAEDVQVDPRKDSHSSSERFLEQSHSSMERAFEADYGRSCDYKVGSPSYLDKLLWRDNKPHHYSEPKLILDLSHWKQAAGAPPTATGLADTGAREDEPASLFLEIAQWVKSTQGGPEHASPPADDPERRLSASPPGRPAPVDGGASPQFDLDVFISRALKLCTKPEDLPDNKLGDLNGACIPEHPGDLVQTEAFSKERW

Work on `Cc1cnc2nc1Nc1cccc(c1)COCc1cc(ccc1OCCN1CCCC1)N2` [Compound 1] yielded a remaining binding at 0.1 µM [1] of 96%, a remaining binding at 0.1 µM [2] of 91% and a remaining binding at 0.1 µM [3] of 83%. The remaining binding at 0.1 µM [4] was 95%, the remaining binding at 0.1 µM [5] was 93% and the remaining binding at 0.1 µM [6] was 100%. For the same compound, the remaining binding at 0.1 µM [7] was 81%.
